The term speed of sound denotes the propagation velocity of pressure waves in the medium. As usually defined, the mass density is the mass of a sample divided by its volume.

The values that follow come from the NIST ThermoML archive (doi:10.1016/j.tca.2014.11.009).

± gives the expanded uncertainty stated by the source.

Assay in one series: not given
To be noted: 283.15 K; 100 kPa; Liquid; Frequency=3 MHz; Sing-around technique in a fixed-path interferometer.
For the compound `O=Cc1ccco1` [2-furaldehyde], the speed of sound is 1495.4 ± 1.6 m/s.

For `CCCCO` [butan-1-ol], the speed of sound was found to be 1291.4 ± 1.6 m/s.

Regarding `CCC(C)O` (stereo unspecified) [butan-2-ol], the speed of sound turned out to be 1268.4 ± 1.6 m/s.

Consider `CCO` [ethanol], for which the speed of sound is 1197.3 ± 1.6 m/s.

The same series, now with this note: 283.15 K; 100 kPa; Liquid; Vibrating tube method.
Turning to `O=Cc1ccco1` [2-furaldehyde], the mass density is listed as 1169.93 ± 0.37 kg/m3.

On to `CCCCO` [butan-1-ol], for which the mass density was found to be 817.21 ± 0.24 kg/m3.

With `CCC(C)O` (stereo unspecified) [butan-2-ol], the mass density stood at 815.39 ± 0.24 kg/m3.

As to `CCO` [ethanol], the mass density is given as 798.51 ± 0.24 kg/m3.

Staying with this series, now noted: 293.15 K; 100 kPa; Liquid; Frequency=3 MHz; Sing-around technique in a fixed-path interferometer.
As to `O=Cc1ccco1` [2-furaldehyde], the speed of sound amounted to 1458.8 ± 1.6 m/s.

Take `CCCCO` [butan-1-ol]: the speed of sound was determined as 1257.5 ± 1.6 m/s.

For the compound `CCC(C)O` (stereo unspecified) [butan-2-ol], the speed of sound is given as 1232.4 ± 1.6 m/s.

For `CCO` [ethanol], the speed of sound is on record as 1162.5 ± 1.6 m/s.

Staying with this series, now noted: 293.15 K; 100 kPa; Liquid; Vibrating tube method.
For the compound `O=Cc1ccco1` [2-furaldehyde], the mass density amounted to 1159.33 ± 0.36 kg/m3.

On to `CCCCO` [butan-1-ol], for which the mass density was determined as 809.65 ± 0.24 kg/m3.

`CCC(C)O` (stereo unspecified) [butan-2-ol]: the mass density is 807.34 ± 0.24 kg/m3.

With `CCO` [ethanol], the mass density is 789.99 ± 0.24 kg/m3.

Still in this series, the particulars now being: 303.15 K; 100 kPa; Liquid; Frequency=3 MHz; Sing-around technique in a fixed-path interferometer.
For the compound `O=Cc1ccco1` [2-furaldehyde], the speed of sound is reported as 1422.5 ± 1.6 m/s.

As to `CCCCO` [butan-1-ol], the speed of sound was determined as 1223.6 ± 1.6 m/s.

Regarding `CCC(C)O` (stereo unspecified) [butan-2-ol], the speed of sound came out at 1196.1 ± 1.6 m/s.

`CCO` [ethanol]: the speed of sound is 1128.3 ± 1.6 m/s.

Staying with this series, now noted: 303.15 K; 100 kPa; Liquid; Vibrating tube method.
Regarding `O=Cc1ccco1` [2-furaldehyde], the mass density was 1148.69 ± 0.35 kg/m3.

As to `CCCCO` [butan-1-ol], the mass density is on record as 802 ± 0.24 kg/m3.

Turning to `CCC(C)O` (stereo unspecified) [butan-2-ol], the mass density stood at 798.99 ± 0.24 kg/m3.

As to `CCO` [ethanol], the mass density is 781.38 ± 0.24 kg/m3.

Still in this series, the particulars now being: 313.15 K; 100 kPa; Liquid; Frequency=3 MHz; Sing-around technique in a fixed-path interferometer.
Turning to `O=Cc1ccco1` [2-furaldehyde], the speed of sound is on record as 1386.5 ± 1.6 m/s.

Regarding `CCCCO` [butan-1-ol], the speed of sound amounted to 1190.2 ± 1.6 m/s.

As for `CCC(C)O` (stereo unspecified) [butan-2-ol], the speed of sound worked out at 1159.5 ± 1.6 m/s.

With `CCO` [ethanol], the speed of sound came out at 1094.6 ± 1.6 m/s.

The series is the same for the next values; noted with them: 313.15 K; 100 kPa; Liquid; Vibrating tube method.
Regarding `O=Cc1ccco1` [2-furaldehyde], the mass density is on record as 1138.01 ± 0.34 kg/m3.

Take `CCCCO` [butan-1-ol]: the mass density came to 794.21 ± 0.24 kg/m3.

As for `CCC(C)O` (stereo unspecified) [butan-2-ol], the mass density is 790.28 ± 0.24 kg/m3.

For the compound `CCO` [ethanol], the mass density worked out at 772.64 ± 0.24 kg/m3.

A further series is described as follows: xn = mol fraction of the nth substance listed. To be noted: 283.15 K; 100 kPa; Liquid; Frequency=3 MHz; Sing-around technique in a fixed-path interferometer; x2 = 0.
For `CCCCO` [butan-1-ol] + O=Cc1ccco1, the speed of sound worked out at 1291.4 ± 1.6 m/s.

Take `CCC(C)O` (stereo unspecified) [butan-2-ol] + O=Cc1ccco1: the speed of sound was found to be 1268.4 ± 1.6 m/s.

For `CCO` [ethanol] + O=Cc1ccco1, the speed of sound was 1197.3 ± 1.6 m/s.

The same series, now with this note: 283.15 K; 100 kPa; Liquid; Vibrating tube method; x2 = 0.
In the case of `CCCCO` [butan-1-ol] + O=Cc1ccco1, the mass density came out at 817.21 ± 0.24 kg/m3.

With `CCC(C)O` (stereo unspecified) [butan-2-ol] + O=Cc1ccco1, the mass density came to 815.39 ± 0.24 kg/m3.

For the compound `CCO` [ethanol] + O=Cc1ccco1, the mass density was 798.51 ± 0.24 kg/m3.

Still in this series, the particulars now being: 293.15 K; 100 kPa; Liquid; Frequency=3 MHz; Sing-around technique in a fixed-path interferometer; x2 = 0.
`CCCCO` [butan-1-ol] + O=Cc1ccco1: the speed of sound amounted to 1257.5 ± 1.6 m/s.

Regarding `CCC(C)O` (stereo unspecified) [butan-2-ol] + O=Cc1ccco1, the speed of sound is 1232.4 ± 1.6 m/s.

Regarding `CCO` [ethanol] + O=Cc1ccco1, the speed of sound came to 1162.5 ± 1.6 m/s.

The series is the same for the next values; noted with them: 293.15 K; 100 kPa; Liquid; Vibrating tube method; x2 = 0.
As for `CCCCO` [butan-1-ol] + O=Cc1ccco1, the mass density stood at 809.65 ± 0.24 kg/m3.

For the compound `CCC(C)O` (stereo unspecified) [butan-2-ol] + O=Cc1ccco1, the mass density turned out to be 807.34 ± 0.24 kg/m3.

Consider `CCO` [ethanol] + O=Cc1ccco1, for which the mass density turned out to be 789.99 ± 0.24 kg/m3.

The series is the same for the next values; noted with them: 303.15 K; 100 kPa; Liquid; Frequency=3 MHz; Sing-around technique in a fixed-path interferometer; x2 = 0.
Consider `CCCCO` [butan-1-ol] + O=Cc1ccco1, for which the speed of sound is 1223.6 ± 1.6 m/s.

On to `CCC(C)O` (stereo unspecified) [butan-2-ol] + O=Cc1ccco1, for which the speed of sound is 1196.1 ± 1.6 m/s.

As to `CCO` [ethanol] + O=Cc1ccco1, the speed of sound is given as 1128.3 ± 1.6 m/s.

The series is the same for the next values; noted with them: 303.15 K; 100 kPa; Liquid; Vibrating tube method; x2 = 0.
As to `CCCCO` [butan-1-ol] + O=Cc1ccco1, the mass density is given as 802 ± 0.24 kg/m3.

Turning to `CCC(C)O` (stereo unspecified) [butan-2-ol] + O=Cc1ccco1, the mass density was 798.99 ± 0.24 kg/m3.

As for `CCO` [ethanol] + O=Cc1ccco1, the mass density is recorded as 781.38 ± 0.24 kg/m3.

Staying with this series, now noted: 313.15 K; 100 kPa; Liquid; Frequency=3 MHz; Sing-around technique in a fixed-path interferometer; x2 = 0.
With `CCCCO` [butan-1-ol] + O=Cc1ccco1, the speed of sound was determined as 1190.2 ± 1.6 m/s.

Take `CCC(C)O` (stereo unspecified) [butan-2-ol] + O=Cc1ccco1: the speed of sound is 1159.5 ± 1.6 m/s.

For `CCO` [ethanol] + O=Cc1ccco1, the speed of sound amounted to 1094.6 ± 1.6 m/s.

The series is the same for the next values; noted with them: 313.15 K; 100 kPa; Liquid; Vibrating tube method; x2 = 0.
`CCCCO` [butan-1-ol] + O=Cc1ccco1: the mass density is 794.21 ± 0.24 kg/m3.

For `CCC(C)O` (stereo unspecified) [butan-2-ol] + O=Cc1ccco1, the mass density is recorded as 790.28 ± 0.24 kg/m3.

`CCO` [ethanol] + O=Cc1ccco1: the mass density is reported as 772.64 ± 0.24 kg/m3.
